Measurements published in US9239334B2, “Fatty acid C16: 1N7-palmitoleate a lipokine and biomarker for metabolic status” (PRESIDENT AND FELLOWS OF HARVARD COLLEGE, priority 2008, dated 2016).
Entries after “also recorded” stand apart in the source; their conditions may differ.

What was measured:
SCD-1 promoter = test: SCD-1 promoter-driven luciferase reporter in FAO hepatoma cells; type: cell-based, murine
Protocol: This possibility was tested using several highly sensitive assays to probe the functional profile and activities of plasma lipids. SCD-1 was chosen as a target because it was determined previously that the suppression of hepatic SCD-1 activity is a major alteration in FABP-deficient mice under diet-induced or genetic obesity. Cao et al., 2006; Maeda et al., 2005. Hepatic SCD-1 expression is regulated by a variety of hormones and nutritional factors such as insulin, glucose, and polyunsaturated fatty acids (PUFAs). Ntambi & Miyazaki, 43 Prog. Lipid Res. 91-104 (2004). […] Chu et al., 26 Mol. Cell Biol. 6786-98 (2006); Ntambi, 40 J. Lipid Res. 1549-58 (1999). The 1.5 kb murine SCD-1 promoter was placed in front of a luciferase reporter and inserted into an adenovirus construct. FAO rat hepatoma cells infected with this adenovirus verified the responsiveness of this reporter to PUFA, consistent with previous observations (FIG. 15). Because this assay system was adapted to a microplate format, very small amounts of lipids were required for experimentation. This system allowed direct testing for the effects of lipids extracted from plasma of WT and FABP-deficient animals.
Lipids were extracted from whole plasma and applied to liver cells expressing the SCD-1 promoter reporter gene. […] To control for any difference in the amount of lipids extracted from plasma and to mimic the in vivo regulation of SCD-1 expression, mixtures of FFAs were generated with the same molar ratio detected in WT or FABP-deficient plasma lipids using the major fatty acids listed in FIG. 2C. […]
(§1) Samples of 200 μl serum were collected using heparin-coated glass tubes and spun at 13,000 g in a microcentrifuge to separate the plasma. […] Tissue protein lysates was separated with SDS-PAGE gels and phosphorylated or total proteins were detected with the following antibodies: phospho AKT Serine 473, AKT, insulin receptor, phospho-tyrosine (Santa Cruz Biotech.); IRS-1 and IRS-2 (Upstate); phospho-GSK and GSK (Cell Signaling Tech.); phospho-insulin receptor from (Calbiocbem). […]

C2C12 cells = test: Glucose uptake in C2C12 myotubes; type: cell-based
From the text: FIG. 3H is the glucose uptake in C2C12 myotubes treated with insulin or palmitoleate. Top panel is immunoblotting of C2C12 cell lysates treated with insulin or palmitoleate using anti-Glut1 or Glut4 antibodies. *: p<0.05.
The effect of C16:1n7-palmitoleate on muscle insulin signaling was explored by pre-treating C2C12 myotubes with either palmitate or palmitoleate overnight and then stimulating the cells with insulin. […] Conversely, C16:1n7-palmitoleate had little effect on its own in this in vitro setting (FIG. 3G). When cells were co-treated with both palmitate and palmitoleate, however, palmitoleate rescued the palmitate-induced reduction in insulin-stimulated AKT phosphorylation. […] The mechanism of this increase is not, apparently, associated with alterations in the absolute levels of Glut1 and Glut4 proteins (FIG. 3H).

[1] = system: MCP1, TNFalpha and IL6 expression in adipocyte fraction; test: Cytokine expression in adipocyte fraction of epididymal fat pads; type: cell-based, mice; conditions: 500 μM for 2 hrs, compared to palmitate
Protocol: FIGS. 16A and 16B present cytokine expression in adipocyte and stromal vascular fractions treated with fatty acids. Epidydamal fat pads were dissected from WT mice and separated into adioycte and stromal vascular fractions as described in Experimental Procedures. Each fraction was treated with palmitate or palmitoleate at 500 μM for 2 hrs. Gene expression was determined with quantitative real-time PCR.
Obesity is associated with low-grade inflammation and increased inflammatory activities in liver and adipose tissues contribute to the development of systemic insulin resistance. Hotamisligil, 444 Nature 860-67 (2006). The effect of plasma lipids on adipose tissue inflammatory responses was explored using explants of adipose tissue treated with lipids from WT or FABP^−/− mice. […] Because adipose tissue contains multiple cell populations in addition to fat cells, adipose tissue was separated into adipocytes and stromal vascular fractions, and each fraction treated with either palmitate or palmitoleate.

[2] = system: AKT phosphorylation in C2C12 myotubes; test: Insulin-stimulated AKT phosphorylation in C2C12 myotubes; type: cell-based
Protocol: Values of bar plot were determined by phospho-AKT ELISA and corresponding immunoblotting results are shown as Insets.
The bottom panel is the corresponding immunoblotting of total and phosphorylated AKT in cells treated with pooled lipids.
To investigate whether plasma lipids also played a role in regulating muscle insulin action, differentiated C2C12 myotubes were treated with lipid extracts from each genotype and the insulin-stimulated AKT phosphorylation determined using an ELISA system.
The effect of C16:1n7-palmitoleate on muscle insulin signaling was explored by pre-treating C2C12 myotubes with either palmitate or palmitoleate overnight and then stimulating the cells with insulin. […] Conversely, C16:1n7-palmitoleate had little effect on its own in this in vitro setting (FIG. 3G). […]
as §1

`CCCCCC/C=C\CCCCCCCC(=O)O` [palmitoleate, C16:1n7-palmitoleate] was tested, and the “effect of palmitate on SCD-1 promoter” value (SCD-1 promoter; cells treated with a mixture of palmitate and palmitoleate) was “antagonized”, the “SCD-1 promoter-driven reporter activity” value (SCD-1 promoter; hepatocytes (FAO) treated with a single fatty acid, 300 μM) was “negatively regulated; also recorded: comparable to arachidonic acid; also recorded: suppressed” and the glucose uptake (C2C12 cells) was “stimulated glucose uptake into C2C12 cells to a level similar to insulin”. The “cytokine expression in adipocyte fractions” value [1] was “suppressed”, the “insulin-stimulated AKT phosphorylation” value ([2]; C2C12 myotubes pre-treated with fatty acid overnight, then insulin) was “little effect” and the “palmitate-induced reduction in insulin-stimulated AKT phosphorylation” value ([2]; co-treated with both palmitate and palmitoleate) was “rescued”.
